Experimental data reported in patent publication US20090221819A1, “FLUORESCENT COMPOUNDS AND USE OF SAID COMPOUNDS IN MULTIPHOTON METHODS OR DEVICES” (priority 2005, published 2009).

Experiments:
Format in all cases: physicochemical
[1] = absorption and photoluminescence characteristics (absorption and fluorescence emission spectra, quantum efficiency, lifetime); details: in toluene; for Φ, fluorescence quantum efficiency: determined with respect to fluorescein in NaOH 0.1N
Procedure: The absorption and photoluminescence characteristics of the 4 compounds of which the syntheses are described above were evaluated.
λabs represents the maximum absorption wavelength of the compound,
λem represents its maximum emission wavelength,
(§1) Φ represents its fluorescence quantum efficiency, determined with respect to the fluorescein in NaOH 0.1N, σ2 represents its effective TPA cross-section (in GM, with 1 GM=10^−50 cm^4.s.photon^−1); the TPEF measurements were performed with a titanium-sapphire laser in locked mode generating pulses of ˜80 fs at 80 MHz, by calibrating with fluorescein),
τ represents its fluorescence lifetime (also called the fluorescent decrease time).

[2] = two-photon absorption (TPA) cross-sections determined by two-photon excitation fluorescence (TPEF); details: for σ2, effective TPA cross-section at 700 nm / σ2, effective TPA cross-section at 990 nm / σ2, effective TPA cross-section at 750 nm: in toluene; for σ2, effective TPA cross-section at 700 nm / σ2, effective TPA cross-section at 990 nm: 10^−4 M
Procedure: The TPA spectra of the […] synthesized compounds (LP42, LP52, CL64, CL108, MC237 and MC263) as well as the reference boron dipyrromethene CL76 were also determined in the near-infrared ([…]) by studying their two-photon excitation fluorescence (TPEF), and are shown in FIG. 9.
The measurements were taken in toluene solutions of 10^−4 M, using a titanium-sapphire laser in locked mode generating pulses of ˜80 fs at 80 MHz.
The quadratic dependence of the fluorescence intensity with the excitation intensity was verified for each point of measurement. The calibration is done with respect to the effective TPEF cross-sections of the fluorescein in water (pH=11), which were determined absolutely in the former literature in the range of 690-1000 nm.
This method provides access to the effective TPEF cross-sections (σ2φ), from which the corresponding effective TPA cross-sections (σ2) are deduced. The data in the literature for compound PM556 are added for comparison.
as §1

water solubility = assay: water solubility

**Q.** Which results are given for `CCC1=C(C)C2=C(c3ccc(-c4cn(-c5ccc(C#Cc6ccc(N(c7ccc(C#Cc8ccc(-n9cc(-c%10ccc(C%11=C%12C(C)=C(CC)C(C)=[N+]%12[B-](F)(F)n%12c(C)c(CC)c(C)c%12%11)cc%10)nn9)cc8)cc7)c7ccc(C#Cc8ccc(-n9cc(-c%10ccc(C%11=C%12C(C)=C(CC)C(C)=[N+]%12[B-](F)(F)n%12c(C)c(CC)c(C)c%12%11)cc%10)nn9)cc8)cc7)cc6)cc5)nn4)cc3)c3c(C)c(CC)c(C)n3[B-](F)(F)[N+]2=C1C` [MC263]?
**A.** ε, molar extinction coefficient [1]: 211100 M⁻¹ cm⁻¹; λabs, maximum absorption wavelength [1]: 528 nm; λem, maximum emission wavelength [1]: 542 nm; τ, fluorescence lifetime [1]: 4.36 ns; Φ, fluorescence quantum efficiency [1]: 1; effective TPA cross-section relative to model CL76 at 750 nm ([2]; at 750 nm, ratio to CL76): 18; σ2, effective TPA cross-section at 700 nm [2]: 185 GM; σ2, effective TPA cross-section at 990 nm [2]: 40 GM; σ2, effective TPA cross-section at 750 nm ([2]; at 750 nm): 270 GM

**Q.** With `CCC1=C(C)C2=C(c3ccc(-c4cc(-c5ccc(C6=C7C(C)=C(CC)C(C)=[N+]7[B-](F)(F)n7c(C)c(CC)c(C)c76)cc5)cc(-c5ccc(C6=C7C(C)=C(CC)C(C)=[N+]7[B-](F)(F)n7c(C)c(CC)c(C)c76)cc5)c4)cc3)c3c(C)c(CC)c(C)n3[B-](F)(F)[N+]2=C1C` [LP52, hexafluoro[μ3-[2,2′2″-[1,3,5-benzenetriyltris[4,1-phenylene[[4-ethyl-3,5-dimethyl-2H-pyrrol-2-ylidene]methylene]]tris[4-ethyl-3,5-dimethyl-1H-pyrrolato]]]]triboron] as the compound, how does the “ε, molar extinction coefficient” value [1] read?
**A.** The value was 244300 M⁻¹ cm⁻¹.

**Q.** What about the “λabs, maximum absorption wavelength” value [1] of the same compound?
**A.** Its value is 527 nm.

**Q.** And the “λem, maximum emission wavelength” value [1]?
**A.** Its value is 542 nm.

**Q.** And the “τ, fluorescence lifetime” value [1]?
**A.** Its value is 4.78 ns.

**Q.** And the “Φ, fluorescence quantum efficiency” value [1]?
**A.** Its value is 0.69.

**Q.** What about the “effective TPA cross-section relative to model CL76 at 700 nm” value ([2]; ratio to CL76) of the same compound?
**A.** The value was 4 times.

**Q.** And the “effective TPA cross-section relative to model CL76 at 990 nm” value ([2]; ratio to CL76)?
**A.** Its value is 3.75 times.

**Q.** And the “σ2, effective TPA cross-section at 700 nm” value [2]?
**A.** The value was 82 GM.

**Q.** And the “σ2, effective TPA cross-section at 990 nm” value [2]?
**A.** Its value is 75 GM.

**Q.** Which results are given for `CCC1=C(C)C2=C(c3ccc(C#Cc4ccc(N(c5ccc(C#Cc6ccc(C7=C8C(C)=C(CC)C(C)=[N+]8[B-](F)(F)n8c(C)c(CC)c(C)c87)cc6)cc5)c5ccc(C#Cc6ccc(C7=C8C(C)=C(CC)C(C)=[N+]8[B-](F)(F)n8c(C)c(CC)c(C)c87)cc6)cc5)cc4)cc3)c3c(C)c(CC)c(C)n3[B-](F)(F)[N+]2=C1C` [CL64]?
**A.** ε, molar extinction coefficient [1]: 221700 M⁻¹ cm⁻¹; λabs, maximum absorption wavelength [1]: 528 nm; λem, maximum emission wavelength [1]: 543 nm; τ, fluorescence lifetime [1]: 4.02 ns; Φ, fluorescence quantum efficiency [1]: 0.93; effective TPA cross-section relative to model CL76 at 700 nm ([2]; ratio to CL76): 9 times; σ2, effective TPA cross-section at 700 nm [2]: 190 GM; σ2, effective TPA cross-section at 990 nm [2]: 45 GM

**Q.** For `CCC1=C(C)C2=C(c3ccc(C#Cc4ccc(-c5cc(-c6ccc(C#Cc7ccc(C8=C9C(C)=C(CC)C(C)=[N+]9[B-](F)(F)n9c(C)c(CC)c(C)c98)cc7)cc6)cc(-c6ccc(C#Cc7ccc(C8=C9C(C)=C(CC)C(C)=[N+]9[B-](F)(F)n9c(C)c(CC)c(C)c98)cc7)cc6)c5)cc4)cc3)c3c(C)c(CC)c(C)n3[B-](F)(F)[N+]2=C1C` [MC237], which “ε, molar extinction coefficient” value [1] is on record?
**A.** Its value is 216400 M⁻¹ cm⁻¹.

**Q.** What about the “λabs, maximum absorption wavelength” value [1] of the same compound?
**A.** The value was 528 nm.

**Q.** What about the “λem, maximum emission wavelength” value [1] of the same compound?
**A.** Its value is 544 nm.

**Q.** And the “τ, fluorescence lifetime” value [1]?
**A.** Its value is 3.95 ns.

**Q.** And the “Φ, fluorescence quantum efficiency” value [1]?
**A.** The value was 0.89.

**Q.** What about the “effective TPA cross-section relative to model CL76 at 700 nm” value ([2]; ratio to CL76) of the same compound?
**A.** Its value is 4 times.

**Q.** And the “σ2, effective TPA cross-section at 700 nm” value [2]?
**A.** The value was 93 GM.

**Q.** What about the “σ2, effective TPA cross-section at 990 nm” value [2] of the same compound?
**A.** Its value is 34 GM.

**Q.** What does the source list for “|4-ethyl-2-|(4-ethyl-3,5-dimethyl-2H-pyrrol-2-ylidene)phenyl methyl|-3,5-dimethyl-1H-pyrrolato|difluoroboron [CL76, reference compound]”?
**A.** ε, molar extinction coefficient [1]: 76180 M⁻¹ cm⁻¹; λabs, maximum absorption wavelength [1]: 527 nm; λem, maximum emission wavelength [1]: 539 nm; Φ, fluorescence quantum efficiency [1]: 0.75; σ2, effective TPA cross-section at 700 nm [2]: 20 GM; σ2, effective TPA cross-section at 990 nm [2]: 20 GM; σ2, effective TPA cross-section at 750 nm ([2]; at 750 nm): 15 GM

**Q.** Which water solubility (water solubility) does the source give for `CC1=C(S(=O)(=O)[O-])C(C)=[N+]2C1=C(c1ccc(C#Cc3ccc(-c4cc(-c5ccc(C#Cc6ccc(C7=C8C(C)=C(S(=O)(=O)[O-])C(C)=[N+]8[B-](F)(F)n8c(C)c(S(=O)(=O)[O-])c(C)c87)cc6)cc5)cc(-c5ccc(C#Cc6ccc(C7=C8C(C)=C(S(=O)(=O)[O-])C(C)=[N+]8[B-](F)(F)n8c(C)c(S(=O)(=O)[O-])c(C)c87)cc6)cc5)c4)cc3)cc1)c1c(C)c(S(=O)(=O)[O-])c(C)n1[B-]2(F)F.[Na+].[Na+].[Na+].[Na+].[Na+].[Na+]` [MC297] here?
**A.** The water solubility was “perfectly water-soluble”.

**Q.** For `CCC1=C(C)C2=C(c3ccc(-c4ccc(C5=C6C(C)=C(CC)C(C)=[N+]6[B-](F)(F)n6c(C)c(CC)c(C)c65)cc4)cc3)c3c(C)c(CC)c(C)n3[B-](F)(F)[N+]2=C1C` [LP42, tetrafluoro[1-[2,2′-[(1,1′-biphenyl)-4,4′-diylbis[[4-ethyl-3,5-dimethyl-2H-pyrrol-2-ylidene-]methylene]]bis[4-ethyl-3,5-dimethyl-1H-pyrrolato]]]diboron], which “ε, molar extinction coefficient” value [1] is on record?
**A.** Its value is 161900 M⁻¹ cm⁻¹.

**Q.** And the “λabs, maximum absorption wavelength” value [1]?
**A.** Its value is 527 nm.

**Q.** And the “λem, maximum emission wavelength” value [1]?
**A.** The value was 542 nm.

**Q.** And the “τ, fluorescence lifetime” value [1]?
**A.** Its value is 4.76 ns.

**Q.** And the “Φ, fluorescence quantum efficiency” value [1]?
**A.** The value was 0.72.

**Q.** And the “effective TPA cross-section relative to model CL76 at 700 nm” value ([2]; ratio to CL76)?
**A.** Its value is 3 times.

**Q.** What about the “effective TPA cross-section relative to model CL76 at 990 nm” value ([2]; ratio to CL76) of the same compound?
**A.** The value was 2.5 times.

**Q.** And the “σ2, effective TPA cross-section at 700 nm” value [2]?
**A.** Its value is 57 GM.

**Q.** And the “σ2, effective TPA cross-section at 990 nm” value [2]?
**A.** The value was 48 GM.
